The target in one assay is T1, mGluR5 (Rattus norvegicus, UniProt P31424).
T1 construct: expressed in transfected cells; host or cells: human embryonic kidney (HEK) cells
Put plainly: mGluR5 negative allosteric modulation, decrease in response to non-maximal glutamate in HEK cells. The assay is classed as cell-based. The following applies: Table 3; read-out: mGlu5 IC50. The text has this:
Embodiments of the present invention are also mGluR5 negative allosteric modulators. Accordingly, in one aspect, the invention relates to compounds that are also useful as negative allosteric modulators of the metabotropic glutamate receptor subtype 5 (mGluR5). Negative allosteric modulators are non-competitive antagonists and can include a range of maximal antagonist activity from partial antagonists to inverse agonists. In one aspect, the present invention relates to compounds that allosterically modulate mGluR5 receptor activity, affecting the sensitivity of mGluR5 receptors to agonists without acting as orthosteric agonists themselves. […] The compounds of the invention can be useful in the treatment neurological and psychiatric disorders associated with glutamate dysfunction and other diseases in which metabotropic glutamate receptors are involved, as further described herein. […] In further aspect, the human embryonic kidney cells are transfected with human mGluR5. In yet a further aspect, human embryonic kidney cells are transfected with mGluR5 of a mammal.
In further aspect, the human embryonic kidney cells are transfected with human mGluR5. In yet a further aspect, human embryonic kidney cells are transfected with mGluR5 of a mammal.

For another assay, the target named is mGluR4 (UniProt Q14833). The experiment in a line: mGluR4 potentiation assay (Ca2+ or thallium flux fluorescence, agonist EC20). Format: cell-based, human or rat. The following applies: Table 3; read-out: mGlu4 EC50. On the procedure: The disclosed compounds and compositions can be evaluated for their ability to act as a potentiator of metabotropic glutamate receptor activity, in particular mGluR4 activity, by any suitable known methodology known in the art. For example, Chinese Hamster Ovary (CHO) cells transfected with human mGluR4 or HEK cells co-transfected with rat mGluR4 and the G-protein regulated Inwardly Rectifying Potassium channel (GIRK) were plated in clear bottom assay plates for assay in a Hamamatsu FDSS Fluorometric Plate Reader. The cells were loaded with either a Ca2+-sensitive fluorescent dye or the thallium responsive dye and the plates were washed and placed into a suitable kinetic plate reader. For human mGluR4 assays, a fluorescence baseline was established for 3-5 seconds, the disclosed compounds were then added to the cells, and the response in cells was measured. Approximately two and a half minutes later, a concentration of mGluR4 orthosteric agonist (e.g. glutamate or L-AP4) eliciting approximately 20% (EC20) of the maximal agonist response was added to the cells, and the response was measured. Two minutes later, a concentration of mGluR4 agonist (e.g. glutamate or L-AP4) eliciting 80% (EC80) of the maximal agonist response was added to the cells, and the response was measured. For rat mGluR4/GIRK experiments, a baseline was established for approximately five seconds, disclosed compounds were added, and either an EC20 or EC80 concentration of agonist was added approximately two and one half minutes later.
The above described assay operated in two modes. In the first mode, a range of concentrations of the disclosed compounds are added to cells, followed by a single fixed concentration of agonist. If the compound acts as a potentiator, an EC50 value for potentiation and a maximum extent of potentiation by the compound at this concentration of agonist is determined by non-linear curve fitting. If the compound acts as a noncompetitive antagonist, an IC50 value is determined by non-linear curve fitting. In the second mode, several fixed concentrations of the disclosed compounds are added to various wells on a plate, followed by a range in concentrations of agonist for each concentration of disclosed compound. The EC50 values for the agonist at each concentration of compound are determined by non-linear curve fitting. A decrease in the EC50 value of the agonist with increasing concentrations of the sample compound (a leftward shift of the agonist concentration-response curve) is an indication of the degree of mGluR4 potentiation at a given concentration of the sample compound. A decrease in the maximal response of the agonist with increasing concentrations of the sample compounds, with or without a rightward shift in agonist potency, is an indication of the degree of noncompetitive antagonism at mGluR4. The second mode also indicates whether the sample compounds also affect the maximum response to mGluR4 to agonists.

The structures appear in SMILES notation.

T1 sequence (P31424 21-1203): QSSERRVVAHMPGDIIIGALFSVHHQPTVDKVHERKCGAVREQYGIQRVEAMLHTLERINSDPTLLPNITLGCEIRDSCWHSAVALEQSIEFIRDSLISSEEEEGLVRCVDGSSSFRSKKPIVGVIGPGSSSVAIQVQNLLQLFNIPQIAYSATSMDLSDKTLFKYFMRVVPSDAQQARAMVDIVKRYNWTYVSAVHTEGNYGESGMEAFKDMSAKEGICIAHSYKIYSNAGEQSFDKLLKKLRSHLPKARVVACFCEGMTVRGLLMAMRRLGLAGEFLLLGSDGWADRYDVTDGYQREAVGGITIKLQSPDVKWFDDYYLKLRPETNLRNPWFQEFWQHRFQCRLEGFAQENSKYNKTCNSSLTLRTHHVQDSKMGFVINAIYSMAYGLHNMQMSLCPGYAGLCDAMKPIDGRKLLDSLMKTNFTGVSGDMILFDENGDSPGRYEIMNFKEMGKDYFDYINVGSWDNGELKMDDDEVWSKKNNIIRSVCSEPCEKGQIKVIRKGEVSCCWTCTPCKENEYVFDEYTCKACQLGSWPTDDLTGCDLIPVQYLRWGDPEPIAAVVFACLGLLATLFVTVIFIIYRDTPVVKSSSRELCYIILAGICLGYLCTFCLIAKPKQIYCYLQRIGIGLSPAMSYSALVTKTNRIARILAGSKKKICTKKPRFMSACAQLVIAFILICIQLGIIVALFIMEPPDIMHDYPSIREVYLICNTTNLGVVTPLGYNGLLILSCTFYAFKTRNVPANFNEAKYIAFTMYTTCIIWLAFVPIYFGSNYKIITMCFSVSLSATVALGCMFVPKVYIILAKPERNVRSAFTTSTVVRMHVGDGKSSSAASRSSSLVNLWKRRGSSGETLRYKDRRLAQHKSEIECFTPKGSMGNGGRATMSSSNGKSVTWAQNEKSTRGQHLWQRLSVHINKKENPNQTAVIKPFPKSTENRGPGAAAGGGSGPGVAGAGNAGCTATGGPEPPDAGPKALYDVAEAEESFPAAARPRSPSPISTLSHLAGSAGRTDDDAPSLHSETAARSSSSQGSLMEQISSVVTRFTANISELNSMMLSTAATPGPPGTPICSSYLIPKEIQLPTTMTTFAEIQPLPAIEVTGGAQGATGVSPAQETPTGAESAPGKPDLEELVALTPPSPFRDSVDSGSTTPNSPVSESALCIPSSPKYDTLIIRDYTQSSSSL

One may read the IC50 as the concentration needed to halve the response being measured. As usually defined, the EC50 is the concentration needed to bring the measured effect to its halfway point. Consider `FC(F)(F)c1cccnc1Nc1ccc(Nc2n[nH]c3cccnc23)cc1Cl` [Example 124, 2-chloro-N4-(1H-pyrazolo[4,3-b]pyridin-3-yl)-N1-(3-(trifluoromethyl)pyridin-2-yl)benzene-1,4-diamine], for which, at mGluR5, the IC50 worked out at 1.54 µM. For the same compound, on mGluR4, the EC50 is 1.56 µM.
`Clc1cc(Nc2n[nH]c3cccnc23)ccc1Nc1cnc2ccccc2n1` [Example 126, 2-chloro-N4-(1H-pyrazolo[4,3-b]pyridin-3-yl)-N1-(quinoxalin-2-yl)benzene-1,4-diamine]: at mGluR5, the 50% inhibitory concentration (IC50) was determined as 3.7 µM. On mGluR4, the EC50 stood at 0.038 µM.
For the compound `Clc1cc(Nc2n[nH]c3cccnc23)ccc1Nc1cccnc1` [Example 127, 2-chloro-N4-(1H-pyrazolo[4,3-b]pyridin-3-yl)-N1-(pyridin-3-yl)benzene-1,4-diamine], the half-maximal inhibitory concentration (IC50) on mGluR5 was 0.022 µM. In addition, the EC50 on mGluR4 was found to be 0.0531 µM.
Taken in the same sequence, the figures for `Cc1ccnc(Nc2ccc(Nc3n[nH]c4cccnc34)cc2Cl)c1` [Example 129, 2-chloro-N1-(4-methylpyridin-2-yl)-N4-(1H-pyrazolo[4,3-b]pyridin-3-yl)benzene-1,4-diamine] were 0.97 µM and 0.0194 µM.

Source of the values: patent publication US9108963B2, “Pyrazolopyridine, pyrazolopyrazine, pyrazolopyrimidine, pyrazolothiophene and pyrazolothiazole compounds as MGLUR4 allosteric potentiators, compositions, and methods of treating neurological dysfunction” (Vanderbilt University, priority 2010, dated 2015).
